Laboratory results from patent publication US20240156090A1, “SUSPENSION CONCENTRATE ACYLHYDRAZONE APYRASE INHIBITOR FORMULATION” (Texas Crop Science, priority 2022, published 2024).

Key:
Assay type in all cases: physicochemical
[1] = Solubility of Compound 1 in water
[2] = Long term chemical stability of aqueous suspension concentrate as a function of pH, HPLC (Example 7); conditions: 30 wt % suspension concentrate
Experimental: Method: An aqueous suspension concentrate was prepared with the following composition: 30 wt % Compound 1, 2.5 wt % tristyrylphenol ethoxylate surfactant, 2.0 wt % ethyleneoxide-propyleneoxide block co-polymeric dispersant, 5.0 wt % propylene glycol freeze protectant, 0.1 wt % silicone oil antifoam, 52.4% distilled water, and after 2 hours of milling were added 8.0 wt % viscosity modifier gel comprising 2.0% xanthan and 1.0% biocide in water. Aliquots of this suspension were taken and adjusted to pH 6, 7 and 8 with respectively 10 wt % sulfuric acid, pH10 borate buffer and 10 wt % sodium hydroxide. The three samples were sub-divided and stored at room temperature (RT, approximately 25° C.) and 38° C. Control samples were stored at 0° C. for reference. Aliquots were withdrawn periodically and diluted in acetonitrile for analysis by HPLC.

[3] = Chemical stability as a function of pH in PBS (Example 6); conditions: for remaining amount of Compound 1: 5 μM
Experimental: A working solution of Compound 1 was prepared in dimethyl sulfoxide at a concentration of 500 μM. 2 μL of the working solution and 198 μL of PBS pH 4.5 or PBS pH 7.4 were added into glass vials to achieve a final concentration of 5 μM. The setup was performed in duplicate. Vials were incubated at 37° C. at 60 rpm in a water bath and taken at designated time points of 0, 2, 4, 6 and 24 hours. For each time point, the incubations were terminated with 1000 μL cold acetonitrile containing internal analytical reference standards. Samples were vortexed for 1 minute then centrifuged at RT at 2500 g for 10 minutes. Aliquots of 200 μL of the supernatant were used for LC-MS/MS analysis.

For `C/C(=N\NC(=O)c1cccc(C)c1)c1ccc2ccccc2c1` [Compound 1, (E)-3-methyl-N′-(1-(naphthalen-2-yl)ethylidene)benzohydrazide], the solubility [1] was < 5 µM, the “amount of Compound 1 remaining” value ([2]; pH 6 sample as printed in the last sentence of b183, 38° C., 1 month) was 99% and the “amount of Compound 1 remaining” value ([2]; pH 6 sample as printed in the last sentence of b183, 38° C., 9 months) was 103%. For the same compound, the “amount of Compound 1 remaining” value ([2]; pH 6 sample, 38° C., 1 month) was 103%, the “amount of Compound 1 remaining” value ([2]; pH 6 sample, 38° C., 9 months) was 94% and the “amount of Compound 1 remaining” value ([2]; pH 6 sample, RT, 1 month) was 99%. The “amount of Compound 1 remaining” value ([2]; pH 6 sample, RT, 9 months) was 86%, the “amount of Compound 1 remaining” value ([2]; pH 7 sample, 38° C., 1 month) was 104% and the “amount of Compound 1 remaining” value ([2]; pH 7 sample, 38° C., 9 months) was 89%. The “amount of Compound 1 remaining” value ([2]; pH 7 sample, RT, 1 month) was 103%, the “amount of Compound 1 remaining” value ([2]; pH 7 sample, RT, 9 months) was 76% and the “amount of Compound 1 remaining” value ([2]; pH 8 sample, RT, 1 month) was 99%. The “amount of Compound 1 remaining” value ([2]; pH 8 sample, RT, 9 months) was 102%, the “remaining amount of Compound 1” value ([3]; PBS pH 4.5, 37° C., 0 hr) was 100% and the “remaining amount of Compound 1” value ([3]; PBS pH 4.5, 37° C., 2 hr) was 62.3%. For the same compound, the “remaining amount of Compound 1” value ([3]; PBS pH 4.5, 37° C., 4 hr) was 33.7%, the “remaining amount of Compound 1” value ([3]; PBS pH 4.5, 37° C., 6 hr) was 29.2% and the “remaining amount of Compound 1” value ([3]; PBS pH 4.5, 37° C., 24 hr) was 3.1%. The “remaining amount of Compound 1” value ([3]; PBS pH 7.4, 37° C., 0 hr) was 100%, the “remaining amount of Compound 1” value ([3]; PBS pH 7.4, 37° C., 2 hr) was 112.4% and the “remaining amount of Compound 1” value ([3]; PBS pH 7.4, 37° C., 4 hr) was 96.2%. The “remaining amount of Compound 1” value ([3]; PBS pH 7.4, 37° C., 6 hr) was 97.8%, the “remaining amount of Compound 1” value ([3]; PBS pH 7.4, 37° C., 24 hr) was 91.1% and the half-life at 5 μM ([3]; mildly acidic conditions (PBS pH 4.5), 37° C., read-out: apparent half-life) was > 2 h. The “estimated half-life of actual degradation in solution” value ([3]; mildly acidic conditions, corrected for solubility below 5 μM) was “below one”.
